Measured values published in PubChem BioAssay (NCI).
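Cultured in 96-well plates, cells were exposed to test compound for 48 hours across five concentrations. At the TGI there is no net growth.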

Legend:
Test in all cases: NCI-60 cell line screen, 48 h
[1] = tested on: EKVX NSCLC
[2] = tested on: OVCAR-8 ovarian
[3] = tested on: RXF 393 renal
[4] = tested on: UO-31 renal
[5] = tested on: HT29 colon
[6] = tested on: COLO 205 colon
[7] = tested on: T-47D breast
[8] = tested on: HS 578T breast
[9] = tested on: ACHN renal
[10] = tested on: SN12C renal
[11] = tested on: HCT-15 colon
[12] = tested on: HL-60(TB) leukemia
[13] = tested on: SR leukemia
[14] = tested on: NCI-H460 lung
[15] = tested on: CAKI-1 renal
[16] = tested on: SF-268 CNS
[17] = tested on: M14 melanoma
[18] = tested on: BT-549 breast
[19] = tested on: HCC-2998 colon
[20] = tested on: MALME-3M melanoma

Row | Structure (SMILES) | TGI [1] [µM] | TGI [2] [µM] | TGI [3] [µM] | TGI [4] [µM] | TGI [5] [µM] | TGI [6] [µM] | TGI [7] [µM] | TGI [8] [µM] | TGI [9] [µM] | TGI [10] [µM] | TGI [11] [µM] | TGI [12] [µM] | TGI [13] [µM] | TGI [14] [µM] | TGI [15] [µM] | TGI [16] [µM] | TGI [17] [µM] | TGI [18] [µM] | TGI [19] [µM] | TGI [20] [µM]
1 | CSc1nn(C)cc2ncnc1-2 | > 100 | > 100 | > 100 | > 100 | > 100 | > 100 | > 100 | > 100 | > 100 | > 100 | > 100 | > 100 | > 100 | > 100 | > 100 | > 100 | > 100 | > 100 | – | –
2 | C=C1C[C@@H]2O[C@H]3[C@H]4[C@@H](C[C@@H](C)[C@@H](OC(C)=O)[C@H]42)[C@@H](C)CO[C@@]3(C)[C@H](OC(=O)CCCCCCC)C[C@H]1O | 31 | 31.4 | 36.1 | 29.7 | 46.2 | 29.9 | 24.6 | 36.4 | 35 | 31.1 | 30.4 | 44.1 | 36.3 | 30.1 | 28 | 31.1 | 35.2 | 32.9 | 30.9 | –
3 | CC(=O)Nc1ccc(C(=O)NN2C(=O)CSC2c2ccc(O)cc2)cc1 (centres undefined) | > 100 | > 100 | > 100 | > 100 | > 100 | > 100 | > 100 | > 100 | > 100 | > 100 | > 100 | > 100 | – | > 100 | – | > 100 | > 100 | > 100 | > 100 | –
4 | CCOC(=O)C1(C#N)C(=O)c2cc[n+](CC[n+]3ccc4c(c3)C(=O)C(C#N)(C(=O)OCC)C4=O)cc2C1=O (centres undefined) | > 100 | > 100 | > 100 | > 100 | > 100 | – | > 100 | > 100 | > 100 | > 100 | > 100 | > 100 | – | > 100 | > 100 | > 100 | > 100 | > 100 | > 100 | > 100
5 | CC(=O)OCC1OC(N2C(c3ccccc3)=CC(c3ccco3)C(C#N)=C2S)C(OC(C)=O)C(OC(C)=O)C1OC(C)=O (centres undefined) | > 52.1 | 12.1 | 15.7 | 29.5 | > 100 | 28.5 | > 67.9 | 7.61 | 24.8 | 26.2 | > 100 | – | > 37.5 | > 62.2 | 34.1 | > 57.4 | 16.9 | > 100 | 48.9 | 13.6
6 | CC(C)(C)C1CCC2c3c([nH]c4ccccc34)C3C(=O)N(c4ccccc4[N+](=O)[O-])C(=O)C3C2C1 (centres undefined) | 44.7 | > 100 | 19 | > 100 | 20.1 | 24.1 | – | 49.5 | 61.3 | 64.3 | 37.6 | 27.5 | > 100 | 27.6 | 32.4 | – | 33.8 | 68.5 | 18.2 | 43
7 | Oc1[nH]c(=S)[nH]c1/C=C1/C(c2ccccc2)=Nc2ccccc21 | 36.4 | 28.8 | 28.7 | 21.4 | 30.5 | 31.8 | – | 42.4 | 78 | 38.7 | 31.2 | 26.1 | 27.9 | 27.6 | 37.5 | > 100 | – | 28.6 | 36.9 | 26.4
8 | CC(C)(C)C1CCC2c3c([nH]c4ccccc34)C3C(=O)N(c4ccccc4Cl)C(=O)C3C2C1 (centres undefined) | 31.5 | 50 | 33.3 | 78.1 | 28.4 | – | – | 35.3 | 70.2 | 22.7 | 31.6 | 50.5 | > 100 | 15.8 | 37.1 | 35.5 | 45.7 | 61.6 | 11.2 | 37.1
9 | O=C1C2CCCCC2C(=O)N1n1c(-c2ccccc2)n[nH]c1=O (centres undefined) | > 100 | > 100 | > 100 | > 100 | > 100 | > 100 | > 100 | > 100 | > 100 | > 100 | > 100 | – | > 100 | > 100 | > 100 | > 100 | > 100 | > 100 | > 100 | > 100
10 | O=c1oc2ccccc2c(O)c1C(c1cnc2ccccc2c1)c1c(O)c2ccccc2oc1=O | > 100 | > 100 | – | > 100 | > 100 | > 100 | > 100 | 80.6 | – | 76.6 | > 100 | 90 | – | > 100 | > 100 | 67.2 | – | 68 | – | > 100
11 | O=[N+]([O-])c1cccc(-c2ncc3c(n2)-c2ccccc2C3)c1 | > 100 | > 100 | > 100 | > 100 | > 100 | > 100 | > 100 | > 100 | > 100 | > 100 | > 100 | > 100 | > 100 | > 100 | > 100 | > 100 | > 100 | > 100 | – | > 100
12 | CC12CCC(=O)N1c1cncnc1N2 (centres undefined) | > 10 | > 10 | – | > 10 | > 10 | – | – | > 10 | > 10 | > 10 | > 10 | > 10 | > 10 | > 10 | – | > 10 | > 10 | > 10 | > 10 | > 10
